# Patent publication EP0721336B1, “BENZAZOLE COMPOUNDS FOR USE IN THERAPY” (CANCER RESEARCH CAMPAIGN TECHNOLOGY LIMITED, priority 1993, dated 1995)
# Where a name gives a salt, the structure may show the parent alone. Read-outs that look alike come from different tables or passages of the source. Marks after values point to notes of the source that are not given here.
# Assays:
# [1] = system: BO (T61) human mammary carcinomas; assay: In vivo activity against implanted BO tumour; design: species or system NMRI-nu/nu female mice
# [2] = system: MCF-7 mammary carcinoma cells; assay: In vitro cytotoxicity assay (cell growth, propidium iodide fluorescence); type: cell-based, human
# From the text: (§1) This is illustrated in Tables 1 and 2 at the end of the present description which show in vitro test results obtained in various sets of experiments for the cytotoxic activity of this compound CJM 126 against a range of human tumour cell lines, expressed in terms of IC50 values (concentration or dosage required to reduce cell growth or proliferation by 50%) calculated from dose-effect curves plotted for cultures of the cells in question.
# (§2) In carrying out the above in vitro studies, the method used for conducting the cytotoxicity assays was generally substantially as follows: • Cells were maintained in a continuous logarithmic culture in Dulbecco's medium supplemented with 10% fetal calf serum and penicillin (100 IU/ml) and streptomycin (100 µg/ml). The cells were mildly trypsinized for passage and for use in assays. On day zero, 100µl of trypsinized tumour cells (1 x 10^4/ml) were plated in the wells of 96-well flat-bottom microtiter plates. […] On day two 50µl of the highest drug concentration was added to the wells of column 12 and from there serially diluted 3-fold to column 1 by serial transfer of 50µl using an 8-channel micropipette. The final volume of column 1 was adjusted to 100µl. No additions were made to the wells of rows A and B, which served as controls. The plates were further incubated for 5 days at 37°C and 5% CO2 in air. Each compound was tested in duplicate. • On day 7 the test was terminated by the addition of 100µl saline containing 0.002% w/v propidium iodide (Sigma), 0.3% drawing ink (Staedtler "Marsmatic 745" - Trade Mark) and 0.5% Triton X-100. The plates were kept at 4°C overnight before reading on an inverted microscope equipped with an automated scanning stage. Fluorescence intensity was measured in arbitrary units by a photomultiplier. An HP-87 computer controlled the movement of the stage and also collected and processed the data from the multiplier. • For each compound tested a dose-response curve was obtained and the IC50 value (the drug concentration at 50% inhibition of cell growth) was calculated.
# MCF 7-ADR mammary = assay: In vitro cytotoxicity and growth stimulation assay; type: cell-based, human; conditions: for IC50: Homo sapiens, NCI/ADR-RES
# From the text: as §1, §2
# [3] = system: MDA 468 mammary (ER-/EGFR+); assay: In vitro cytotoxicity assay; type: cell-based, human
# From the text: as §1, §2
# MCF-7 mammary carcinoma = assay: In vivo activity against MCF-7 tumour implanted s.c.; conditions: i.v., 10 mg/kg/day, qd 6, 13, 20
# [4] = Homo sapiens, MCF-wt, column A, read-out: MCF-wt A IC50 at sub-micromolar concentrations
# [5] = Homo sapiens, MCF-wt, column B, read-out: MCF-wt B IC50 at >micromolar concentrations
# [6] = column B, read-out: MCF7-Adr B IC50 at >micromolar concentrations
# [7] = Homo sapiens, column A, read-out: MDA 468 A IC50 at sub-micromolar concentrations
# [8] = Homo sapiens, column B, read-out: MDA 468 B IC50 at >micromolar concentrations
# [9] = Homo sapiens, MCF7, MCF 7-wt cells, values in text, read-out: IC50
# [10] = Homo sapiens, MDA 468 cells, values in text, read-out: IC50
compound,measurement,setting,value
"CC[C@]1(O)C[C@H]2CN(CCc3c([nH]c4ccccc34)[C@@](C(=O)OC)(c3cc4c(cc3OC)N(C=O)[C@H]3[C@@](O)(C(=O)OC)[C@H](OC(C)=O)[C@]5(CC)C=CCN6CC[C@]43[C@@H]65)C2)C1 [Vincristine, reference compound]",BWC,"[1]; i.p., 1 mg/kg/day, qd 27",-6
same,Relative tumour volume (T/C%),"[1]; i.p., 1 mg/kg/day, qd 27, d33",142%
same,Relative tumour volume (T/C%),"[1]; i.p., 1 mg/kg/day, qd 27, d41",62%
same,Relative tumour volume (T/C%),"[1]; i.p., 1 mg/kg/day, qd 27, d47",61%
same,Relative tumour volume (T/C%),"[1]; i.p., 1 mg/kg/day, qd 27, d55",61%
same,Relative tumour volume (T/C%),"[1]; i.p., 1 mg/kg/day, qd 27, d61",57%
"Nc1ccc(-c2nc3cc(OCc4ccccc4)ccc3s2)c(Cl)c1 [DF161, 2-(4-Amino-2-chlorophenyl)-5-benzyloxybenzothiazole]",IC50,[2]; [4],0.001 µM
same,IC50,[2]; [5],55.9 µM
same,IC50,MCF 7-ADR mammary; [6],84.8 µM
same,IC50,[3]; [7],0.0007 µM
same,IC50,[3]; [8],2.84 µM
"Cc1ccc2nc(-c3ccc(N)cc3)sc2c1 [2-(4-aminophenyl)-6-methylbenzothiazole, reference compound]",IC50,[2]; [9],0.38 µM
same,IC50,[3]; [10],0.4 µM
"c1ccc2sc(-c3ccc(N4CCCC4)cc3)nc2c1 [Compound 93006, 2-[4-(Pyrrolidin-1-yl)phenyl]benzothiazole]",IC50,[2]; [4],0.867 µM
"O=C1c2c(O)ccc(O)c2C(=O)c2c(NCCNCCO)ccc(NCCNCCO)c21 [Mitoxantrone, reference compound]",BWC,"[1]; i.v., 10 mg/kg/day, qd 27",-5
same,Relative tumour volume (T/C%),"[1]; i.v., 10 mg/kg/day, qd 27, d33",58* %
same,Relative tumour volume (T/C%),"[1]; i.v., 10 mg/kg/day, qd 27, d41",26* %
same,Relative tumour volume (T/C%),"[1]; i.v., 10 mg/kg/day, qd 27, d47",6* %
same,Relative tumour volume (T/C%),"[1]; i.v., 10 mg/kg/day, qd 27, d55",7* %
same,Relative tumour volume (T/C%),"[1]; i.v., 10 mg/kg/day, qd 27, d61",4* %
same,Relative tumour volume (T/C%),MCF-7 mammary carcinoma; d9,52%
same,Relative tumour volume (T/C%),MCF-7 mammary carcinoma; d13,32* %
same,Relative tumour volume (T/C%),MCF-7 mammary carcinoma; d20,38* %
same,Relative tumour volume (T/C%),MCF-7 mammary carcinoma; d27,26* %
same,Relative tumour volume (T/C%),MCF-7 mammary carcinoma; d35,29* %
same,Relative tumour volume (T/C%),MCF-7 mammary carcinoma; d43,29* %
same,BWC (%),MCF-7 mammary carcinoma; relative to saline treated animals,-10%
"Nc1cccc(-c2nc3ccccc3s2)c1 [CJM 129, 2-(3-Aminophenyl)benzothiazole]",IC50,[2]; [5],> 10 µM
same,MCF7-Adr A IC50 at sub-micromolar concentrations,MCF 7-ADR mammary; column A,Inactive
same,MCF7-Adr B IC50 at >micromolar concentrations,MCF 7-ADR mammary; column B,Inactive
same,BWC,"[1]; i.p., 2 mg/kg/day, qd 27,34,41",2
same,Relative tumour volume (T/C%),"[1]; i.p., 2 mg/kg/day, qd 27,34,41, d33",127%
same,Relative tumour volume (T/C%),"[1]; i.p., 2 mg/kg/day, qd 27,34,41, d41",91%
same,Relative tumour volume (T/C%),"[1]; i.p., 2 mg/kg/day, qd 27,34,41, d47",94%
same,Relative tumour volume (T/C%),"[1]; i.p., 2 mg/kg/day, qd 27,34,41, d55",95%
same,Relative tumour volume (T/C%),"[1]; i.p., 2 mg/kg/day, qd 27,34,41, d61",78%
same,BWC,"[1]; i.p., 20 mg/kg/day, qd 27,34,41",-3
same,Relative tumour volume (T/C%),"[1]; i.p., 20 mg/kg/day, qd 27,34,41, d33",88%
same,Relative tumour volume (T/C%),"[1]; i.p., 20 mg/kg/day, qd 27,34,41, d41",77%
same,Relative tumour volume (T/C%),"[1]; i.p., 20 mg/kg/day, qd 27,34,41, d47",54%
same,Relative tumour volume (T/C%),"[1]; i.p., 20 mg/kg/day, qd 27,34,41, d55",73%
same,Relative tumour volume (T/C%),"[1]; i.p., 20 mg/kg/day, qd 27,34,41, d61",48* %
same,BWC,"[1]; i.p., 200 mg/kg/day, qd 27,34,41",-6
same,Relative tumour volume (T/C%),"[1]; i.p., 200 mg/kg/day, qd 27,34,41, d33",78* %
same,Relative tumour volume (T/C%),"[1]; i.p., 200 mg/kg/day, qd 27,34,41, d41",45* %
same,Relative tumour volume (T/C%),"[1]; i.p., 200 mg/kg/day, qd 27,34,41, d47",32* %
same,Relative tumour volume (T/C%),"[1]; i.p., 200 mg/kg/day, qd 27,34,41, d55",33* %
same,Relative tumour volume (T/C%),"[1]; i.p., 200 mg/kg/day, qd 27,34,41, d61",36* %
"COc1cccc2sc(-c3ccc(N)cc3Cl)nc12 [Compound 93005, 2-(4-amino-2-chlorophenyl)-4-methoxybenzothiazole]",IC50,[2]; [4],0.063 µM
same,IC50,"MCF 7-ADR mammary; column A, read-out: MCF7-Adr A IC50 at sub-micromolar concentrations",0.0465 µM
same,IC50,[3]; [7],0.0022 µM
"Nc1ccc(-c2nc3ccccc3s2)cc1 [Example IC, 2-(4-Aminophenyl)benzothiazole methanesulphonic acid salt]",IC50,[2]; [9],0.0007 µM
same,IC50,[3]; [10],0.0024 µM
"Nc1ccc(-c2nc3ccccc3o2)cc1 [DF140, 2-(4-Aminophenyl)benzoxazole]",IC50,[2]; [4],0.11 µM
same,IC50,[3]; [8],> 10 µM
"COc1ccc2nc(-c3ccc(N)cc3)sc2c1 [Compound 93002, 2-(4-Aminophenyl)-6-methoxybenzothiazole]",IC50,[2]; [4],0.38 µM
same,IC50,[3]; [8],7.64 µM
"c1ccc2sc(-c3ccc(N4CCOCC4)cc3)nc2c1 [Compound 93008, 2-[4-(Morpholin-4-yl)phenyl]benzothiazole]",IC50,[2]; [4],0.16 µM
"CCS(=O)(=O)O.Nc1ccc(-c2nc3ccccc3s2)cc1 [Compound 93003, Ethanesulphonic acid salt of 2-(4-aminophenyl)benzothiazole]",IC50,"[2]; MCF-wt, column A, read-out: MCF-wt A IC50 at sub-micromolar concentrations",0.0046 µM
same,MCF7-Adr C Concentrations which stimulate cell growth,MCF 7-ADR mammary; column C,"3,10 µM"
same,IC50,"[3]; column A, read-out: MDA 468 A IC50 at sub-micromolar concentrations",0.0024 µM
"O=P1(N(CCCl)CCCl)NCCCO1 (centres unmarked) [Cyclophosphamide, reference compound]",BWC,"[1]; i.p., 150 mg/kg/day, qd 27",-4
same,Relative tumour volume (T/C%),"[1]; i.p., 150 mg/kg/day, qd 27, d33",117%
same,Relative tumour volume (T/C%),"[1]; i.p., 150 mg/kg/day, qd 27, d41",27* %
same,Relative tumour volume (T/C%),"[1]; i.p., 150 mg/kg/day, qd 27, d47",29* %
same,Relative tumour volume (T/C%),"[1]; i.p., 150 mg/kg/day, qd 27, d55",19* %
same,Relative tumour volume (T/C%),"[1]; i.p., 150 mg/kg/day, qd 27, d61",5* %
"Nc1ccc(-c2nc3cc(O)cc(O)c3s2)cc1 [DF162Eb, 2-(4-Aminophenyl)-5,7-dihydroxybenzothiazole]",IC50,[2]; [5],49.6 µM
same,IC50,MCF 7-ADR mammary; [6],13.9 µM
same,IC50,[3]; [8],16.3 µM
"Nc1ccc(OS(=O)(=O)C(F)(F)F)c(-c2nc3ccccc3s2)c1 [Example XIV, 2-(3-Amino-6-trifluoromethylsulphonyloxyphenyl)benzothiazole]",IC50,"[2]; Homo sapiens, MCF7, MCF-7 (wild type) cells, read-out: IC50",0.05 µM
"Nc1ccc(-c2nc3ccccc3s2)c(Cl)c1 [Compound 93004, 2-(4-Amino-2-Chlorophenyl)benzothiazole]",IC50,[2]; [4],0.142 µM
same,IC50,[3]; [7],0.003 µM
"c1ccc2sc(-c3ccc(N4CCCCC4)cc3)nc2c1 [Compound 93007, 2-[4-(Piperidin-1-yl)phenyl]benzothiazole]",IC50,[2]; [5],2.77 µM
